Data reported in patent publication US20200164026A1, “Intranasal Delivery of Cell Permeant Therapeutics” (The Trustees of Columbia University in the City of New York, priority 2010, published 2020).

Tests used:
[1] = Intranasal delivery of Pen1-XBIR3 to rat CNS; western blot (anti-HIS) of coronal brain slices; type: in vivo; settings: intranasal 60 μl, 1 hr after delivery
Procedure: The following experiment was performed to ascertain if the Pen1-XBIR3 could also bypass the blood brain barrier via another delivery technique. […] (Dhuria, et al., J Pharm Sci 99 (4), 1654-1673 (2010); Liu, et al., J Stroke Cerebrovasc Dis 13 (1), 16-23 (2004); Liu, et al., J Neurol Sci 187 (1-2), 91-97 (2001)). This delivery method takes advantage of the olfactory pathway to bypass the blood brain barrier, however until now, proteins and compounds delivered via this method in rodent models have targeted extracellular targets, such as cell surface receptors. Since caspases, which are intracellular proteins, are targeted in this experiment, the cargo needed to be delivered intracellularly. […] Pent-XBIR3 was delivered intranasally to rats, after which brains were sliced coronally, and the presence of XBIR3 in the CNS determined by western blotting (FIG. 4A).
(§1) Intranasal Delivery of Pen1-XBIR3. While under isofluorane anesthesia and lying on their backs, Pen1-XBIR3 (36.8 μM) was delivered to rats by administering 6 μl drops to alternating nares every two minutes for 20 minutes (60 μl total delivered). (Thorne, et al., Neuroscience 127 (2), 481-496 (2004)). Intranasal treatment was done prior to induction of stroke. Saline was used as a negative control. Brains were harvested for immunohistochemistry or western blotting.

rats subjected to tMCAo [2] = experiment: 24-point neurofunctional scale after 2 hr tMCAo, monitored for 21 days; type: in vivo, rat
Procedure: The efficacy of Pent-XBIR3 to prevent sensory-motor disability caused by stroke was tested by giving rats either a prophylatic (pre-occlusion) or therapeutic (4 hours post reperfusion) intranasal bolus of vehicle or Pent-XBIR3 (prepared and administerd as described in section 6.8, below). Rodents were assayed with a 24-point neurofunctional scale starting at 1 day post-ischemia with testing every other day for 3 weeks after the ischemic event.
as §1

[3] = system: cleaved caspase-6 (c1-C6) and caspase-9; experiment: Pen1-XBIR3 delivered to the striatum (CED/ICC) prior to tMCAo; immunostaining for c1-C6 and caspase-9; type: in vivo, rat; settings: delivered to striatum 1 hr prior to tMCAo, 24 hpr
Description: (Davidson, et al., J Neurosci 24 (45), 10040-10046 (2004)). Upon entry into the cell the disulfide linkage is broken by the reducing environment of the cytoplasm, releasing the peptide cargo and allowing it to act at its target. Functional efficacy of this construct was confirmed using hippocampal neuronal cultures that were subjected to 4-hydroxynonenal (HNE) mediated death, a caspase-9 dependent death. (Rabacchi, et al., Neurobiol Aging 25 (8), 1057-1066 (2004)). […] To ensure that a Pen1-peptide could be delivered to the brain, Pen1 was linked to a FITC-labeled control peptide and delivered to the striatum using convection enhanced delivery (CED). Brains were harvested 24 hr after delivery, sectioned, and imaged. […] Pent-XBIR3 was delivered to the striatum 1 hr prior to tMCAo using ICC. Animals were harvested at 24 hpr and immunostained for caspase-9 and c1-C6. […]
Pen1-XBIR3. […] Linkage was assessed by 20% SDS-PAGE and western blotting with anti-His antibody. […]
Immunohistochemistry (IHC), Cell Process Quantification, and Statistical Analysis. […] Quantification of neurons and axons was accomplished using the Cell Counter plug-in for ImageJ (NIH). For quantification in the rat brain, 20x magnification images were acquired from the dorsal motor cortex and the […] somatosensory cortex forelimb region; both regions are contained are within the infarct penumbra (FIG. 1A). […]

rats subjected to tMCAo [4] = experiment: Ischemic infarct volume (H&E) after intranasal Pen1-XBIR3 and tMCAo; type: in vivo, rat; settings: 24 hpr, n=3
Procedure: as §1

Pen1-XBIR3: BIR3 domain from XIAP, a specific caspase-9 inhibitor, disulfide-linked to Penetratin1 cell transduction peptide (SEQ ID NO: 10)
presence of XBIR3 in brain slices (anterior to posterior) [1]: delivered to all slices of the brain | presence of XBIR3 in brain slices (anterior to posterior) ([1]; listed as Pent-XBIR3): throughout the rat CNS | neurofunctional score (stroke related disability) (rats subjected to tMCAo [2]; prophylactic (pre-occlusion) intranasal bolus): less stroke related disability | neurofunctional score (stroke related disability) (rats subjected to tMCAo [2]; therapeutic (4 hours post reperfusion) intranasal bolus): functional recovery up to 21 d | neurofunctional score (stroke related disability) (rats subjected to tMCAo [2]; therapeutic (4 hours post reperfusion) intranasal bolus, listed as Pent-XBIR3): less stroke related disability | caspase-9 and c1-C6 immunostaining in neuronal soma and processes [3]: blocks the increase in caspase-9 and the induction of c1-C6 | caspase-9 and c1-C6 immunostaining in neuronal soma and processes ([3]; listed as Pent-XBIR3): inhibited appearance of c1-C6 and caspase-9 | ischemic infarct volume (rats subjected to tMCAo [4]): reduces ischemic infarct volume
